The results in this text go back to US20060035829A1, “Chemokine combinations to mobilize progenitor/stem cells” (AnorMED Inc., priority 2004, published 2006).

The test system of assay [1] is CFU-GM progenitor cells in peripheral blood. Kind of assay: Peripheral blood progenitor cell (PBSC) mobilization, CFU-GM assay of PBMC. In kind it is in vivo. Conditions: BALB/c mice, mean (X). The method, then: Experimental procedures are as previously described (Pelus, L. M., et al., Blood (2001) 97:1534-1542; Blood (2004) 103:110-119). […] Mobilization experiments were performed in BALB/c mice (3 mice group). For mobilization with AMD3100 or GROβ alone, PBSC mobilization was quantified at the peak of mobilization determined for either agent in previous experiments. Thus, PBSC mobilization was quantified at 15 mins following an s.c. injection of 2.5 mg/kg GROβ and at 1 hour following an s.c. injection of 5 mg/kg AMD3100. In the combination experiment, PBSC mobilization was quantitated at 5, 15, 30, 60 and 150 minutes after a single subcutaneous injection of 2.5 mg/kg GROβ (R & D Systems) in saline and 5 mg/kg AMD3100. The compounds were injected separately and simultaneously at different s.c. sites. Injections were scheduled so that control and mobilized mice were evaluated at the same time in every experiment. Mice were killed by CO2 asphyxiation and blood was obtained by cardiac puncture using syringes coated with EDTA (ethylenediaminetetra acetic acid). PBMC's were obtained by separation of peripheral blood (0.4 mL) on Lympholyte-M (Cedarlane Labs, Hornby, ON, Canada). Complete blood counts (CBC's) were performed on a Hemavet Mascot (CDC Technologies, Oxford, Conn.). Manual differentials were performed on Wright-Giemsa-stained (Hema-Tek 1000, Bayer, Elkhart, Ind.) blood smears or spleen and bone marrow cell cytospin preparations (Shandon, Pittsburgh, Pa.). CFU-GM Assay PBMC's were assayed for CFU-GM in McCoy 5A media with 15% heat-inactivated fetal bovine serum (Hyclone Sterile Systems, Logan, Utah) and 0.3% agar (Difco Laboratories, Detroit, Mich.). PBMC's were cultured at 2×10^5/mL. CFU-GM were stimulated with 10 ng/mL recombinant murine GM-CSF (rmGM-CSF), 10 ng/mL rmIL-1α, and 50 ng/mL stem cell factor (SCF). Triplicate cultures from individual animals were incubated at 37° C., 5% CO2, 5% O2 in air for 7 days. Total CFU-GM/mL blood was determined by multiplying CFU frequencies by PBMC/ml blood corrected for white blood cell (WBC) recovery after Lympholyte-M separation.

In a further assay the test system is peripheral blood cells. As to the kind of experiment: Peripheral blood differential summary (complete blood counts, manual differentials). It is filed as in vivo. The conditions noted are these: BALB/c mice. The method, then: Mobilization experiments were performed in BALB/c mice (3 mice group). For mobilization with AMD3100 or GROβ alone, PBSC mobilization was quantified at the peak of mobilization determined for either agent in previous experiments. Thus, PBSC mobilization was quantified at 15 mins following an s.c. injection of 2.5 mg/kg GROβ and at 1 hour following an s.c. injection of 5 mg/kg AMD3100.
In the combination experiment, PBSC mobilization was quantitated at 5, 15, 30, 60 and 150 minutes after a single subcutaneous injection of 2.5 mg/kg GROβ (R & D Systems) in saline and 5 mg/kg AMD3100. The compounds were injected separately and simultaneously at different s.c. sites. Injections were scheduled so that control and mobilized mice were evaluated at the same time in every experiment. Mice were killed by CO2 asphyxiation and blood was obtained by cardiac puncture using syringes coated with EDTA (ethylenediaminetetra acetic acid). PBMC's were obtained by separation of peripheral blood (0.4 mL) on Lympholyte-M (Cedarlane Labs, Hornby, ON, Canada). Complete blood counts (CBC's) were performed on a Hemavet Mascot (CDC Technologies, Oxford, Conn.). Manual differentials were performed on Wright-Giemsa-stained (Hema-Tek 1000, Bayer, Elkhart, Ind.) blood smears or spleen and bone marrow cell cytospin preparations (Shandon, Pittsburgh, Pa.).

In the case of `c1cc(CN2CCCNCCNCCCNCC2)ccc1CN1CCCNCCNCCCNCC1` [AMD3100, 1,1′-[1,4-phenylene-bis(methylene)]-bis-1,4,8,11-tetraazacyclotetradecane], in assay [1] (60 min after s.c. injection (GROβ 2.5 mg/kg, AMD3100 5 mg/kg)), the CFU-GM/ml turned out to be 698.19 CFU-GM/ml. Moreover, in assay [1] (60 min after s.c. injection), the “CFU-GM Mobilized Above Control” value turned out to be 576.15 and the “Fold Inc (CFU-GM/ml over PBS control)” value was 5.72. In the assay with peripheral blood cells (60 min after s.c. injection), the “% LYMPH” value worked out at 59.17%, the “% MONO” value came out at 3.27%, the “% PMN” value is 36.61% and the LYMPH turned out to be 8.54. For the same compound, in the assay with peripheral blood cells (60 min after s.c. injection), the MONO came out at 0.47, the PMN amounted to 5.35 and the WBC was 14.49.
“GROβ: chemokine GROβ (R & D Systems) in saline; acts via the CXCR2 receptor”: the CFU-GM/ml in assay [1] (15 min after s.c. injection (GROβ 2.5 mg/kg, AMD3100 5 mg/kg)) was determined as 2505.54 CFU-GM/ml. Moreover, in assay [1] (15 min after s.c. injection), the “CFU-GM Mobilized Above Control” value is 2383.50 and the “Fold Inc (CFU-GM/ml over PBS control)” value was 20.53. Besides, in the assay on peripheral blood cells (15 min after s.c. injection), the “% LYMPH” value amounted to 65.19%, the “% MONO” value is 5.65%, the “% PMN” value was found to be 27.35% and the LYMPH worked out at 7.76. Also, in the assay on peripheral blood cells (15 min after s.c. injection), the MONO worked out at 0.67, the PMN was found to be 3.34 and the WBC is 11.98.
